Source: patent US11274083B2, “Substituted thiophenyl uracils, salts thereof and the use thereof as herbicidal agents” (Syngenta Crop Protection AG, priority 2017, dated 2022)

Columns and labels:
Assay type in all cases: in vivo
[1] = test system: Lolium rigidum; experiment: Herbicidal action post-emergence, greenhouse pot test; conditions: application rate 80 g/ha
Method in brief: (§1)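 Visual efficacy scoring (0% like untreated, 100% plant death) about 3 weeks post-treatment. Application, at ≤80 g/ha, was a post-emergence spray of wettable-powder or emulsion-concentrate formulations in water with 0.5% additive at 600 L/ha onto one-leaf-stage plants grown 2–3 weeks from seed in sandy loam.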

[2] = test system: Pharbitis purpurea; experiment: as above
Method in brief: as §1

[3] = test system: Polygonum convolvulus; experiment: as above
Method in brief: as §1

[4] = test system: Avena fatua; experiment: as above; conditions: application rate 80 g/ha
Method in brief: as §1

[5] = test system: Alopecurus myosuroides; experiment: as above; conditions: scored visually after about 3 weeks vs untreated controls
Method in brief: as §1

[6] = test system: Setaria viridis; experiment: as above
Method in brief: as §1

[7] = test system: Amaranthus retroflexus; experiment: as above
Method in brief: as §1

[8] = test system: Veronica persica; experiment: as above
Method in brief: as §1

[9] = test system: Echinochloa crus-galli; experiment: as above; conditions: application rate 80 g/ha
Method in brief: as §1

[10] = test system: Viola tricolor; experiment: as above
Method in brief: as §1

[11] = test system: Stellaria media; experiment: as above
Method in brief: as §1

[12] = test system: Matricaria inodora; experiment: as above; conditions: application rate 80 g/ha
Method in brief: as §1

[13] = test system: Abutilon theophrasti; experiment: as above
Method in brief: as §1

[14] = test system: Hordeum murinum; experiment: as above
Method in brief: as §1

[15] = test system: Lolium rigidum; experiment: Herbicidal action pre-emergence, greenhouse pot test; conditions: application rate 320 g/ha
Method in brief: (§2)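 Pre-emergence soil-surface treatment at application rates of 320 g/ha or below, using WP or EC formulations in water (600 L/ha) plus 0.5% additive over freshly sown, soil-covered seeds. After roughly 3 weeks' greenhouse growth, damage rated visually against untreated plants, 0% meaning like control.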

[16] = test system: Pharbitis purpurea; experiment: as above
Method in brief: as §2

[17] = test system: Polygonum convolvulus; experiment: as above
Method in brief: as §2

[18] = test system: Alopecurus myosuroides; experiment: as above; conditions: application rate 320 g/ha
Method in brief: as §2

[19] = test system: Setaria viridis; experiment: as above
Method in brief: as §2

[20] = test system: Amaranthus retroflexus; experiment: as above
Method in brief: as §2

[21] = test system: Veronica persica; experiment: as above
Method in brief: as §2

[22] = test system: Echinochloa crus-galli; experiment: as above; conditions: application rate 320 g/ha
Method in brief: as §2

[23] = test system: Viola tricolor; experiment: as above
Method in brief: as §2

[24] = test system: Cyperus esculentus; experiment: as above
Method in brief: as §2

[25] = test system: Stellaria media; experiment: as above
Method in brief: as §2

[26] = test system: Abutilon theophrasti; experiment: as above
Method in brief: as §2

[27] = test system: Hordeum murinum; experiment: as above; conditions: application rate 320 g/ha
Method in brief: as §2

[28] = test system: Triticum aestivum; experiment: Crop compatibility post-emergence, greenhouse pot test
Method in brief: (§3)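 Greenhouse post-emergence spray at one-leaf stage, 600 L/ha with 0.5% additive. Injury was assessed visually after about 3 weeks as % of untreated control.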

[29] = test system: Oryza sativa; experiment: as above
Method in brief: as §3

[30] = test system: Matricaria inodora; experiment: Herbicidal action pre-emergence, greenhouse pot test
[31] = test system: Avena fatua; experiment: as above; conditions: application rate 320 g/ha
Method in brief: as §2

[32] = test system: Zea mays; experiment: Crop compatibility post-emergence, greenhouse pot test
Method in brief: as §3

[33] = test system: Glycine max; experiment: as above; conditions: application rate 20 g/ha
Method in brief: as §3

Row | SMILES | Lolium rigidum (Efficacy in %) [1] [%] | Pharbitis purpurea (Efficacy in %) ([2]; application rate 20 g/ha) [%] | Polygonum convolvulus (Efficacy in %) ([3]; application rate 80 g/ha) [%] | Avena fatua (Efficacy in %) [4] [%] | Alopecurus myosuroides (Efficacy in %) ([5]; application rate 80 g/ha) [%] | Setaria viridis (Efficacy in %) ([6]; application rate 80 g/ha) [%] | Amaranthus retroflexus (Efficacy in %) ([7]; application rate 80 g/ha) [%] | Veronica persica (Efficacy in %) ([8]; application rate 20 g/ha) [%] | Echinochloa crus-galli (Efficacy in %) [9] [%] | Viola tricolor (Efficacy in %) ([10]; application rate 80 g/ha) [%] | Matricaria inodora (Efficacy in %) [12] [%] | Abutilon theophrasti (Efficacy in %) ([13]; application rate 80 g/ha) [%] | Hordeum murinum (Efficacy in %) ([14]; application rate 80 g/ha) [%] | Lolium rigidum (Efficacy in %) [15] [%] | Alopecurus myosuroides (Efficacy in %) [18] [%] | Amaranthus retroflexus (Efficacy in %) ([20]; application rate 80 g/ha) [%] | Veronica persica (Efficacy in %) ([21]; application rate 80 g/ha) [%] | Echinochloa crus-galli (Efficacy in %) [22] [%] | Hordeum murinum (Efficacy in %) [27] [%] | Avena fatua (Efficacy in %) [31] [%] | other results
1 | CCC(Sc1cc(-n2c(=O)cc(C(F)(F)F)n(C)c2=O)c(F)cc1Cl)C(=O)OCCC(=O)OC (stereo not drawn) [I.2-2] | 80 | 100 | 100 | 80 | 100 | 100 | 100 | 100 | 100 | 100 | 100 | 100 | 80 | 100 | 100 | 100 | 100 | 100 | 100 | – | Stellaria media (Efficacy in %) ([11]; application rate 80 g/ha): 100%; Pharbitis purpurea (Efficacy in %) ([16]; application rate 320 g/ha): 100%; Polygonum convolvulus (Efficacy in %) ([17]; application rate 320 g/ha): 100%; Setaria viridis (Efficacy in %) ([19]; application rate 320 g/ha): 100%; Viola tricolor (Efficacy in %) ([23]; application rate 320 g/ha): 100%; Cyperus esculentus (Efficacy in %) ([24]; application rate 320 g/ha): 90%; Stellaria media (Efficacy in %) ([25]; application rate 320 g/ha): 100%; Abutilon theophrasti (Efficacy in %) ([26]; application rate 320 g/ha): 100%; Triticum aestivum (Efficacy in %) ([28]; application rate 5 g/ha): 20%; Oryza sativa (Efficacy in %) ([29]; application rate 5 g/ha): 20%; Matricaria inodora (Efficacy in %) ([30]; application rate 320 g/ha): 100%
2 | COC(=O)CCOC(=O)C(C)Sc1cc(-n2c(=O)cc(C(F)(F)F)n(C)c2=O)c(F)cc1Cl (stereo not drawn) [I.1-2] | 90 | 100 | – | 80 | 100 | 100 | 100 | 100 | 100 | 100 | 100 | 100 | – | 100 | 90 | 100 | 100 | 100 | 90 | 90 | Polygonum convolvulus (Efficacy in %) ([3]; application rate 20 g/ha): 100%; Stellaria media (Efficacy in %) ([11]; application rate 20 g/ha): 100%; Hordeum murinum (Efficacy in %) ([14]; application rate 20 g/ha): 100%; Pharbitis purpurea (Efficacy in %) ([16]; application rate 80 g/ha): 100%; Polygonum convolvulus (Efficacy in %) ([17]; application rate 80 g/ha): 100%; Setaria viridis (Efficacy in %) ([19]; application rate 80 g/ha): 100%; Viola tricolor (Efficacy in %) ([23]; application rate 80 g/ha): 100%; Stellaria media (Efficacy in %) ([25]; application rate 80 g/ha): 100%; Abutilon theophrasti (Efficacy in %) ([26]; application rate 80 g/ha): 100%; Matricaria inodora (Efficacy in %) ([30]; application rate 80 g/ha): 100%
3 | COC(=O)CC(CC(=O)OC)OC(=O)C(C)Sc1cc(-n2c(=O)cc(C(F)(F)F)n(C)c2=O)c(F)cc1Cl (stereo not drawn) [I.1-127] | 100 | 100 | 100 | 80 | 90 | 100 | – | 100 | 100 | 100 | 100 | 100 | 90 | 100 | 90 | – | – | 100 | 100 | 90 | Amaranthus retroflexus (Efficacy in %) ([7]; application rate 20 g/ha): 100%; Stellaria media (Efficacy in %) ([11]; application rate 20 g/ha): 100%; Pharbitis purpurea (Efficacy in %) ([16]; application rate 320 g/ha): 100%; Polygonum convolvulus (Efficacy in %) ([17]; application rate 320 g/ha): 100%; Setaria viridis (Efficacy in %) ([19]; application rate 320 g/ha): 100%; Amaranthus retroflexus (Efficacy in %) ([20]; application rate 20 g/ha): 100%; Veronica persica (Efficacy in %) ([21]; application rate 320 g/ha): 100%; Viola tricolor (Efficacy in %) ([23]; application rate 320 g/ha): 100%; Stellaria media (Efficacy in %) ([25]; application rate 320 g/ha): 100%; Abutilon theophrasti (Efficacy in %) ([26]; application rate 320 g/ha): 100%; Zea mays (Efficacy in %) ([32]; application rate 5 g/ha): 20%; Matricaria inodora (Efficacy in %) ([30]; application rate 320 g/ha): 100%
4 | CON(C)C(=O)COC(=O)C(C)Sc1cc(-n2c(=O)cc(C(F)(F)F)n(C)c2=O)c(F)cc1Cl (stereo not drawn) [I.1-242] | 100 | – | 100 | 80 | – | 100 | 100 | – | 100 | 100 | 100 | 100 | 90 | 100 | 90 | 100 | 100 | 100 | 90 | 80 | Pharbitis purpurea (Efficacy in %) ([2]; application rate 80 g/ha): 100%; Alopecurus myosuroides (Efficacy in %) ([5]; application rate 20 g/ha): 90%; Veronica persica (Efficacy in %) ([8]; application rate 80 g/ha): 100%; Stellaria media (Efficacy in %) ([11]; application rate 80 g/ha): 100%; Pharbitis purpurea (Efficacy in %) ([16]; application rate 80 g/ha): 100%; Polygonum convolvulus (Efficacy in %) ([17]; application rate 80 g/ha): 100%; Setaria viridis (Efficacy in %) ([19]; application rate 80 g/ha): 100%; Viola tricolor (Efficacy in %) ([23]; application rate 80 g/ha): 100%; Cyperus esculentus (Efficacy in %) ([24]; application rate 80 g/ha): 80%; Stellaria media (Efficacy in %) ([25]; application rate 80 g/ha): 100%; Abutilon theophrasti (Efficacy in %) ([26]; application rate 80 g/ha): 100%; Triticum aestivum (Efficacy in %) ([28]; application rate 5 g/ha): 20%; Zea mays (Efficacy in %) ([32]; application rate 80 g/ha): 20%; Oryza sativa (Efficacy in %) ([29]; application rate 5 g/ha): 20%; Matricaria inodora (Efficacy in %) ([30]; application rate 80 g/ha): 100%
5 | CCOC(=O)CCOC(=O)C(CC(C)C)Sc1cc(-n2c(=O)c(C)c(C(F)(F)F)n(C)c2=O)c(F)cc1Cl (stereo not drawn) [I.14-3] | – | 100 | – | – | – | – | – | 100 | – | – | – | – | – | – | – | – | – | – | – | – | Polygonum convolvulus (Efficacy in %) ([3]; application rate 20 g/ha): 100%; Setaria viridis (Efficacy in %) ([6]; application rate 20 g/ha): 90%; Amaranthus retroflexus (Efficacy in %) ([7]; application rate 20 g/ha): 100%; Viola tricolor (Efficacy in %) ([10]; application rate 20 g/ha): 100%; Abutilon theophrasti (Efficacy in %) ([13]; application rate 20 g/ha): 100%; Glycine max (Efficacy in %) [33]: 20%; Triticum aestivum (Efficacy in %) ([28]; application rate 20 g/ha): 20%; Oryza sativa (Efficacy in %) ([29]; application rate 20 g/ha): 0%
